What was measured:
[1] = test system: A549-ACE2 infected with SARS-CoV-2; test: morphology score (similarity to uninfected cells); higher = more like uninfected cells; conditions: 24 h
HepG2 [2] = test: drug sensitivity score (DSS) for viability; higher = more toxic; extreme values may be limits of the assay; conditions: 72 h
Caco-2 [3] = test: as above; conditions: 72 h
Vero E6 [4] = test: as above; conditions: 72 h
U2OS [5] = test: as above; conditions: 72 h
HepG2 [6] = test: cell viability relative to DMSO; higher = less toxic; conditions: 72 h
Caco-2 [7] = test: as above; conditions: 72 h
Vero E6 [8] = test: as above; conditions: 72 h
U2OS [9] = test: as above; conditions: 72 h
A549-ACE2 [10] = test: drug-induced phospholipidosis relative to tamoxifen; higher = more phospholipidosis
HepG2 [11] = test: relative viability EC50 (midpoint between 100% and the lowest measured viability); higher = less toxic; conditions: 72 h
Caco-2 [12] = test: as above; conditions: 72 h
Vero E6 [13] = test: as above; conditions: 72 h
U2OS [14] = test: as above; conditions: 72 h
[15] = test system: A549-ACE2 infected with SARS-CoV-2; test: cell count relative to DMSO; higher = less toxic; conditions: 24 h
[16] = test system: A549-ACE2 infected with SARS-CoV-2; test: SARS-CoV-2 infection rate relative to DMSO; higher = more infection; conditions: 24 h
Calu-3 [17] = test: drug sensitivity score (DSS) for viability; higher = more toxic; extreme values may be limits of the assay; conditions: 72 h
Calu-3 [18] = test: cell viability relative to DMSO; higher = less toxic; conditions: 72 h
A549-ACE2 [19] = test: phospholipidosis EC50; higher = less potent phospholipidosis inducer
Calu-3 [20] = test: relative viability EC50 (midpoint between 100% and the lowest measured viability); higher = less toxic; conditions: 72 h

O=Nc1ccc(O)c2ncccc12 [NSC-3852]
Conditions	SARS-CoV-2 infection rate, [16] [%]	cell count, [15] [%]	cell viability, Caco-2 [7] [%]	cell viability, HepG2 [6] [%]	cell viability, U2OS [9] [%]	cell viability, Vero E6 [8] [%]	morphology score, [1]
1 nM	–	–	86.2	103	93.5	99.8	–
10 nM	–	–	101	89.6	99.5	102	–
100 nM	–	–	98.5	101	96.2	98.4	–
0.3 µM	106	97	–	–	–	–	-0.15
1000 nM	–	–	81.6	77.7	70.2	71.5	–
3 µM	96	76	–	–	–	–	-0.09
10 µM	48	63	–	–	–	–	0.41
10000 nM	–	–	9.2	33	7.2	30.1	–
30 µM	14	41	–	–	–	–	0.64

Conditions	drug sensitivity score	relative viability EC50 [µM]
Caco-2 [3]	8	–
Caco-2 [12]	–	1.73
HepG2 [2]	6.9	–
HepG2 [11]	–	1.32
U2OS [5]	9.3	–
U2OS [14]	–	1.37
Vero E6 [4]	7.5	–
Vero E6 [13]	–	1.18

drug-induced phospholipidosis [%], A549-ACE2 [10]
Conditions	0.3 µM	0.833333 µM	3.33333 µM	6.66667 µM	10 µM
24 h	0.34	-0.2	2.51	14.6	10.9
48 h	3.9	1.44	–	–	–
72 h	3.53	1.53	–	–	–

CCCOC(C(=O)OC1CCN(C)CC1)(c1ccccc1)c1ccccc1 [propiverine]
Conditions	SARS-CoV-2 infection rate [%]	cell count [%]	cell viability [%]	morphology score	phospholipidosis EC50 [µM]
A549-ACE2 [19], 24 h	–	–	–	–	2.8
A549-ACE2 [19], 48 h	–	–	–	–	4.22
A549-ACE2 [19], 72 h	–	–	–	–	5.23
Caco-2 [7], 1 nM	–	–	102	–	–
Caco-2 [7], 10 nM	–	–	102	–	–
Caco-2 [7], 100 nM	–	–	102	–	–
Caco-2 [7], 1000 nM	–	–	95.5	–	–
Caco-2 [7], 10000 nM	–	–	89.7	–	–
Calu-3 [18], 1 nM	–	–	93.5	–	–
Calu-3 [18], 10 nM	–	–	95.1	–	–
Calu-3 [18], 100 nM	–	–	100	–	–
Calu-3 [18], 1000 nM	–	–	105	–	–
Calu-3 [18], 10000 nM	–	–	80.4	–	–
HepG2 [6], 1 nM	–	–	106	–	–
HepG2 [6], 10 nM	–	–	109	–	–
HepG2 [6], 100 nM	–	–	104	–	–
HepG2 [6], 1000 nM	–	–	117	–	–
HepG2 [6], 10000 nM	–	–	78	–	–
U2OS [9], 1 nM	–	–	107	–	–
U2OS [9], 10 nM	–	–	99	–	–
U2OS [9], 100 nM	–	–	99.5	–	–
U2OS [9], 1000 nM	–	–	97.8	–	–
U2OS [9], 10000 nM	–	–	96.8	–	–
Vero E6 [8], 1 nM	–	–	103	–	–
Vero E6 [8], 10 nM	–	–	95	–	–
Vero E6 [8], 100 nM	–	–	105	–	–
Vero E6 [8], 1000 nM	–	–	96.4	–	–
Vero E6 [8], 10000 nM	–	–	98.4	–	–
[1], 0.3 µM	–	–	–	0.19	–
[1], 3 µM	–	–	–	0.77	–
[1], 10 µM	–	–	–	0.9	–
[1], 30 µM	–	–	–	0.74	–
[15], 0.3 µM	–	101	–	–	–
[15], 3 µM	–	119	–	–	–
[15], 10 µM	–	120	–	–	–
[15], 30 µM	–	110	–	–	–
[16], 0.3 µM	95	–	–	–	–
[16], 3 µM	51	–	–	–	–
[16], 10 µM	17	–	–	–	–
[16], 30 µM	11	–	–	–	–

Conditions	drug sensitivity score	relative viability EC50 [µM]
Caco-2 [3]	0	–
Caco-2 [12]	–	> 10
Calu-3 [17]	0.4	–
Calu-3 [20]	–	> 10
HepG2 [2]	0.4	–
HepG2 [11]	–	> 10
U2OS [5]	0	–
U2OS [14]	–	> 10
Vero E6 [4]	0	–
Vero E6 [13]	–	> 10

drug-induced phospholipidosis [%], A549-ACE2 [10]
Conditions	0.3 µM	0.833333 µM	3.33333 µM	6.66667 µM	10 µM	30 µM
24 h	2.28	8.59	66.7	91.7	105	109
48 h	4.59	4.15	46.3	84.9	98.8	115
72 h	4.64	4.08	43.7	80.2	95.8	123

CC(NCCC(c1ccccc1)c1ccccc1)c1ccccc1 (stereo unspecified) [fendiline]
Conditions	SARS-CoV-2 infection rate [%]	cell count [%]	cell viability [%]	morphology score	phospholipidosis EC50 [µM]
A549-ACE2 [19], 24 h	–	–	–	–	4.59
A549-ACE2 [19], 48 h	–	–	–	–	6.53
A549-ACE2 [19], 72 h	–	–	–	–	6.61
Caco-2 [7], 1 nM	–	–	97.6	–	–
Caco-2 [7], 10 nM	–	–	99.8	–	–
Caco-2 [7], 100 nM	–	–	93.9	–	–
Caco-2 [7], 1000 nM	–	–	98.1	–	–
Caco-2 [7], 10000 nM	–	–	67.6	–	–
Calu-3 [18], 1 nM	–	–	91.6	–	–
Calu-3 [18], 10 nM	–	–	96.3	–	–
Calu-3 [18], 100 nM	–	–	103	–	–
Calu-3 [18], 1000 nM	–	–	102	–	–
Calu-3 [18], 10000 nM	–	–	46.7	–	–
HepG2 [6], 1 nM	–	–	110	–	–
HepG2 [6], 10 nM	–	–	97.8	–	–
HepG2 [6], 100 nM	–	–	102	–	–
HepG2 [6], 1000 nM	–	–	94.2	–	–
HepG2 [6], 10000 nM	–	–	70.1	–	–
U2OS [9], 1 nM	–	–	99.2	–	–
U2OS [9], 10 nM	–	–	106	–	–
U2OS [9], 100 nM	–	–	93.1	–	–
U2OS [9], 1000 nM	–	–	99.6	–	–
U2OS [9], 10000 nM	–	–	84.2	–	–
Vero E6 [8], 1 nM	–	–	96.5	–	–
Vero E6 [8], 10 nM	–	–	98.6	–	–
Vero E6 [8], 100 nM	–	–	97.5	–	–
Vero E6 [8], 1000 nM	–	–	99.4	–	–
Vero E6 [8], 10000 nM	–	–	88.9	–	–
[1], 0.3 µM	–	–	–	-0.14	–
[1], 3 µM	–	–	–	0.77	–
[1], 10 µM	–	–	–	0.9	–
[1], 30 µM	–	–	–	0.08	–
[15], 0.3 µM	–	98	–	–	–
[15], 3 µM	–	110	–	–	–
[15], 10 µM	–	119	–	–	–
[15], 30 µM	–	43	–	–	–
[16], 0.3 µM	100	–	–	–	–
[16], 3 µM	47	–	–	–	–
[16], 10 µM	13	–	–	–	–
[16], 30 µM	45	–	–	–	–

Conditions	drug sensitivity score	relative viability EC50 [µM]
Caco-2 [3]	1.7	–
Calu-3 [17]	2.6	–
Calu-3 [20]	–	3.42
HepG2 [2]	2.2	–
U2OS [5]	0.3	–
U2OS [14]	–	> 10
Vero E6 [4]	0	–
Vero E6 [13]	–	> 10

drug-induced phospholipidosis [%], A549-ACE2 [10]
Conditions	0.3 µM	0.833333 µM	3.33333 µM	6.66667 µM	10 µM	30 µM
24 h	3.14	1.17	27.5	62.8	85	85.8
48 h	2.47	2.24	19.7	62.3	88.8	–
72 h	1.95	-3.79	18.1	60.3	87.3	–

O=C([O-])CN1CCN(CC(=O)[O-])CCN([C@H](CO)[C@H](O)CO)CCN(CC(=O)[O-])CC1.[Gd+3] (racemic) [gadobutrol]
Conditions	drug sensitivity score	relative viability EC50 [µM]
Caco-2 [3]	0	–
Caco-2 [12]	–	> 10
Calu-3 [17]	0	–
Calu-3 [20]	–	> 10
HepG2 [2]	0	–
HepG2 [11]	–	> 10
U2OS [5]	0	–
U2OS [14]	–	> 10
Vero E6 [4]	0	–
Vero E6 [13]	–	> 10

cell viability [%]
Conditions	Caco-2 [7]	Calu-3 [18]	HepG2 [6]	U2OS [9]	Vero E6 [8]
1 nM	107	96.2	97	99.6	100
10 nM	96.2	104	99.2	113	105
100 nM	95.5	109	101	100	96.8
1000 nM	98.8	109	91.8	104	99.4
10000 nM	104	98.4	100	106	107

— the supplement of paper PMC13380429
